The text below walks through data of US20040162428A1, “6-(2,6-difluorophenyl)-triazolopyrimidines as fungicides” (priority 2001, published 2004).

The assay concerns Botrytis cinerea. Briefly: Comparison trial: control of gray mould (Botrytis cinerea) on fruit slices of green pepper. It counts as in vivo. The following applies: green pepper fruit slices sprayed with 500 ppm, inoculated after 2 hours, incubated four days at 18-20° C.; untreated infected to 100%. An excerpt:
The active compounds, separately or together, were formulated as a 10% emulsion in a mixture of 70% by weight of cyclohexanone, 20% by weight of Nekanil® LN (Lutensol® AP6, wetting agent having emulsifying and dispersant action based on ethoxylated alkylphenols) and 10% by weight of Wettol® EM (nonionic emulsifier based on ethoxylated castor oil) and diluted with water to the desired concentration. Comparison trial—Control of gray mould (Botrytis cinerea) on fruit slices of green pepper Fruit slices of green pepper were sprayed to run-off with an aqueous suspension, containing the concentration of active ingredient or their mixture mentioned in the table below, prepared from a stock solution containing 10% of the active ingredient; 85% cyclohexanone and 5% emulsifier. After 2 hours the sprayed-on layer had dried, the disks were inoculated with a spore suspension of Botrytis cinerea containing 1,7×10^6 spores per ml in 2 wt. % aqueous biomalt solution. The infected fruit slices were then incubated in chambers with high humidity for four days at 18-20° C. The fruit slice area under fungal attack was then assessed visually in percent.

Each structure is given as a SMILES string.

Take `Fc1cccc(F)c1-c1c(Cl)nc2ncnn2c1NCC(F)(F)F` [A]: the “infection (fruit slice area under fungal attack in percent)” value is listed as 100%.

Take `CC(Nc1c(-c2c(F)cccc2F)c(Cl)nc2ncnn12)C(F)(F)F` (centres unmarked) [B]: the “infection (fruit slice area under fungal attack in percent)” value turned out to be 20%.
